{
  "source": "PubChem BioAssay AID602351",
  "about": "(The Scripps Research Institute Molecular Screening Center, 2012)",
  "experiment_in_all_cases": "mouse tissue hydrolase off-target profiling – ABPP MudPIT, LC-MS, ABHD6 analysis, in vivo study for DAGLb inhibitor project, late-stage follow-up (AID 602351)",
  "key": {"Abhd11": {"system": "Abhd11", "settings": "serine hydrolase spectral counts, stronger effect = lower value"}, "Abhd12": {"system": "Abhd12", "settings": "serine hydrolase spectral counts, stronger effect = lower value"}, "Acot1": {"system": "Acot1", "settings": "serine hydrolase spectral counts, stronger effect = lower value"}, "Acot2": {"system": "Acot2", "settings": "serine hydrolase spectral counts, stronger effect = lower value"}, "[1]": {"biological_target": "Acyl-protein thioesterase 1 (Mus musculus) (UniProt P97823)", "sequence (P97823 whole entry, looked up)": "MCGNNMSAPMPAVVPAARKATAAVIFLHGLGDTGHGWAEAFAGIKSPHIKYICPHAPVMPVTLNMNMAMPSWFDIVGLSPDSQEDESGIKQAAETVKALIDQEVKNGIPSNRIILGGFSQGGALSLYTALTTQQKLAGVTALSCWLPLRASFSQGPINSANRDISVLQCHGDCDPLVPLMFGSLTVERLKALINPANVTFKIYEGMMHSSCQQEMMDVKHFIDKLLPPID", "settings": "serine hydrolase spectral counts"}, "Aoah": {"system": "Aoah", "settings": "serine hydrolase spectral counts, stronger effect = lower value"}, "Apeh": {"system": "Apeh", "settings": "serine hydrolase spectral counts, stronger effect = lower value"}, "Ctsa": {"system": "Ctsa", "settings": "serine hydrolase spectral counts, stronger effect = lower value"}, "Ctsg": {"system": "Ctsg", "settings": "serine hydrolase spectral counts, stronger effect = lower value"}, "[2]": {"biological_target": "Diacylglycerol lipase-beta (Mus musculus) (UniProt Q91WC9)", "sequence (Q91WC9 whole entry, looked up)": "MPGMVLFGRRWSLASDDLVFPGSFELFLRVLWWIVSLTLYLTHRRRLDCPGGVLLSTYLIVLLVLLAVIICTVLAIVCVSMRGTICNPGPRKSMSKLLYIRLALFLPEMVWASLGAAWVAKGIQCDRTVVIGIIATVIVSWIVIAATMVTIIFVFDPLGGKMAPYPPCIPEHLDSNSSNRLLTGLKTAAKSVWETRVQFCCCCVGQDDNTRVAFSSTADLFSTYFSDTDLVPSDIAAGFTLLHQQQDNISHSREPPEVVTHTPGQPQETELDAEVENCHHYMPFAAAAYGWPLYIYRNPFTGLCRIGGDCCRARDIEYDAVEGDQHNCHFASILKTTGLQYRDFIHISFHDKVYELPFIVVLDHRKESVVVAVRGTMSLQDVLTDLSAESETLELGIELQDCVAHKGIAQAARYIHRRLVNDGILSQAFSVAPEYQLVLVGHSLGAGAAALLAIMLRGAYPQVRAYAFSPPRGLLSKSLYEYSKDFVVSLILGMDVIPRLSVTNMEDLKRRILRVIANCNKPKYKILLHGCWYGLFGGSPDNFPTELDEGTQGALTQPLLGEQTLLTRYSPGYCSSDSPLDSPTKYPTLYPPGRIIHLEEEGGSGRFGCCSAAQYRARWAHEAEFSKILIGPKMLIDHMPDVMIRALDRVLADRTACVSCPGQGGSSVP", "settings": "serine hydrolase spectral counts, Daglb, stronger effect = lower value"}, "Dpp4": {"system": "Dpp4", "settings": "serine hydrolase spectral counts, stronger effect = lower value"}, "Dpp7": {"system": "Dpp7", "settings": "serine hydrolase spectral counts, stronger effect = lower value"}, "Dpp8": {"system": "Dpp8", "settings": "serine hydrolase spectral counts, stronger effect = lower value"}, "Dpp9": {"system": "Dpp9", "settings": "serine hydrolase spectral counts, stronger effect = lower value"}, "Elane": {"system": "Elane", "settings": "serine hydrolase spectral counts, stronger effect = lower value"}, "Fam108b": {"system": "Fam108b", "settings": "serine hydrolase spectral counts, stronger effect = lower value"}, "Fasn": {"system": "Fasn", "settings": "serine hydrolase spectral counts, stronger effect = lower value"}, "Gzma": {"system": "Gzma", "settings": "serine hydrolase spectral counts, stronger effect = lower value"}, "Iah1": {"system": "Iah1", "settings": "serine hydrolase spectral counts, stronger effect = lower value"}, "KIAA1363": {"system": "KIAA1363", "settings": "serine hydrolase spectral counts, stronger effect = lower value"}, "Lipa": {"system": "Lipa", "settings": "serine hydrolase spectral counts, stronger effect = lower value"}, "Lipe": {"system": "Lipe", "settings": "serine hydrolase spectral counts, stronger effect = lower value"}, "Lpl": {"system": "Lpl", "settings": "serine hydrolase spectral counts, stronger effect = lower value"}, "Lypla2": {"system": "Lypla2", "settings": "serine hydrolase spectral counts, stronger effect = lower value"}, "Magl": {"system": "Magl", "settings": "serine hydrolase spectral counts, stronger effect = lower value"}, "[3]": {"biological_target": "Monoacylglycerol lipase ABHD6 (Mus musculus) (UniProt Q8R2Y0)", "sequence (Q8R2Y0 whole entry, looked up)": "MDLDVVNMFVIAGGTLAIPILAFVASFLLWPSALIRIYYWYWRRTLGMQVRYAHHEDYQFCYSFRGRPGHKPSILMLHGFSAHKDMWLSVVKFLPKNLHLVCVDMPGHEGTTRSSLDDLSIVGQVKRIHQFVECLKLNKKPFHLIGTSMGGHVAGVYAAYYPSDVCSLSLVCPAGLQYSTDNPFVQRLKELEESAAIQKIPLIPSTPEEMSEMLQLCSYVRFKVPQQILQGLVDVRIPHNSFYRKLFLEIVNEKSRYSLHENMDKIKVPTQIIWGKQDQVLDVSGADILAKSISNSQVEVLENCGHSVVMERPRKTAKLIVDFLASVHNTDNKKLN", "settings": "serine hydrolase spectral counts, stronger effect = lower value"}, "Pafah1b2": {"system": "Pafah1b2", "settings": "serine hydrolase spectral counts, stronger effect = lower value"}, "Pafah1b3": {"system": "Pafah1b3", "settings": "serine hydrolase spectral counts, stronger effect = lower value"}, "[4]": {"biological_target": "Palmitoyl-protein thioesterase ABHD10, mitochondrial (Mus musculus) (UniProt Q6PE15)", "sequence (Q6PE15 whole entry, looked up)": "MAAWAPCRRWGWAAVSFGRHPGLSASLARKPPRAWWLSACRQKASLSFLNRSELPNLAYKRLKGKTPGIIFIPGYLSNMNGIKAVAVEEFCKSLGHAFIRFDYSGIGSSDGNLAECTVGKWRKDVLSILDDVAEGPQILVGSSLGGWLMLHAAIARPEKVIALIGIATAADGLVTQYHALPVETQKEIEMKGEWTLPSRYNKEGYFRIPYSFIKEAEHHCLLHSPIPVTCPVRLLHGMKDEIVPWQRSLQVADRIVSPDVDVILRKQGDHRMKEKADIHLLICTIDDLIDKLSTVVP", "settings": "serine hydrolase spectral counts, stronger effect = lower value"}, "Pla2g15": {"system": "Pla2g15", "settings": "serine hydrolase spectral counts, stronger effect = lower value"}, "[5]": {"biological_target": "Platelet-activating factor acetylhydrolase (Mus musculus) (UniProt Q60963)", "sequence (Q60963 whole entry, looked up)": "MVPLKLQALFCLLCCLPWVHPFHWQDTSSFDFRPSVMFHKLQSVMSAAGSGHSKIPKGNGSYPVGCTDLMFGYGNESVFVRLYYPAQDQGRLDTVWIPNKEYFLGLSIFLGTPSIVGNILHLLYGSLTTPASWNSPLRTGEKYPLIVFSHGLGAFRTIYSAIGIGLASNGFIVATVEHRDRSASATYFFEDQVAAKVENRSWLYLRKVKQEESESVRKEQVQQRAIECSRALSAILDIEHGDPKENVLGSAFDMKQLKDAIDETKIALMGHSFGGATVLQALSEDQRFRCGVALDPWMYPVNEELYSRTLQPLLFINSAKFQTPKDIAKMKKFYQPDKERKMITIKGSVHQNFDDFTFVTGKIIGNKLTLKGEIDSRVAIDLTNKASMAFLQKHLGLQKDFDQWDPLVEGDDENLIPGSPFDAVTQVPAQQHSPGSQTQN", "settings": "serine hydrolase spectral counts"}, "[6]": {"biological_target": "Platelet-activating factor acetylhydrolase 2, cytoplasmic (Mus musculus) (UniProt Q8VDG7)", "sequence (Q8VDG7 whole entry, looked up)": "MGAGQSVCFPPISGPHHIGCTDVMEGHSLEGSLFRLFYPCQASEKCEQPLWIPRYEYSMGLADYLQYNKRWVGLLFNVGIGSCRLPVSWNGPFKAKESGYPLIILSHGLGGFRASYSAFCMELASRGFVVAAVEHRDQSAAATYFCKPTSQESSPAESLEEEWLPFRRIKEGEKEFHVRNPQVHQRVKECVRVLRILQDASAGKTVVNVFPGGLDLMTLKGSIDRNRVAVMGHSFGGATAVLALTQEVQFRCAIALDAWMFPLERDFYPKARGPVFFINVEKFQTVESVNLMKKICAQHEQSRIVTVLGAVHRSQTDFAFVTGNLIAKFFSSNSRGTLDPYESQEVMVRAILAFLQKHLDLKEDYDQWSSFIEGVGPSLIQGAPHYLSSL", "settings": "serine hydrolase spectral counts"}, "Pnpla6": {"system": "Pnpla6", "settings": "serine hydrolase spectral counts, stronger effect = lower value"}, "Pnpla7": {"system": "Pnpla7", "settings": "serine hydrolase spectral counts, stronger effect = lower value"}, "Ppt2": {"system": "Ppt2", "settings": "serine hydrolase spectral counts, stronger effect = lower value"}, "Prcp": {"system": "Prcp", "settings": "serine hydrolase spectral counts, stronger effect = lower value"}, "Prepl": {"system": "Prepl", "settings": "serine hydrolase spectral counts, stronger effect = lower value"}, "Tpp2": {"system": "Tpp2", "settings": "serine hydrolase spectral counts, stronger effect = lower value"}, "[7]": {"settings": "significance of hydrolase inhibition"}},
  "note": "Calls of active or inactive are those of the source. The rule behind the calls is not given here.",
  "data": [
    {"smiles": "COc1ccc(-c2ccc(-c3cn(C(=O)N4CCCCC4c4ccccc4)nn3)cc2)cc1", "note": "(stereo unspecified)", "values": [
      {"measurement": "spectral counts, test compound", "setting": "Abhd11", "value": "6.67 (inactive)"},
      {"measurement": "p value vs vehicle", "setting": "Abhd11; [7]", "value": 0.422},
      {"measurement": "spectral counts, test compound", "setting": "Abhd12", "value": "24.3 (inactive)"},
      {"measurement": "p value vs vehicle", "setting": "Abhd12; [7]", "value": 0.363},
      {"measurement": "spectral counts, test compound", "setting": "Acot1", "value": "25.7 (inactive)"},
      {"measurement": "p value vs vehicle", "setting": "Acot1; [7]", "value": 0.22},
      {"measurement": "spectral counts, test compound", "setting": "Acot2", "value": "41.7 (inactive)"},
      {"measurement": "p value vs vehicle", "setting": "Acot2; [7]", "value": 0.041},
      {"measurement": "spectral counts, test compound", "setting": "[1]; Lypla1, stronger effect = lower value", "value": "51.7 (inactive)"},
      {"measurement": "p value vs vehicle", "setting": "[1]; Lypla1, significance of hydrolase inhibition, stronger effect = lower value", "value": 0.676},
      {"measurement": "spectral counts, test compound", "setting": "Aoah", "value": "14.7 (inactive)"},
      {"measurement": "p value vs vehicle", "setting": "Aoah; [7]", "value": 0.53},
      {"measurement": "spectral counts, test compound", "setting": "Apeh", "value": "148 (inactive)"},
      {"measurement": "p value vs vehicle", "setting": "Apeh; [7]", "value": 0.187},
      {"measurement": "spectral counts, test compound", "setting": "Ctsa", "value": "86.7 (inactive)"},
      {"measurement": "p value vs vehicle", "setting": "Ctsa; [7]", "value": 0.035},
      {"measurement": "spectral counts, test compound", "setting": "Ctsg", "value": "36.3 (inactive)"},
      {"measurement": "p value vs vehicle", "setting": "Ctsg; [7]", "value": 0.101},
      {"measurement": "spectral counts, test compound", "setting": "[2]", "value": "13.7 (inactive)"},
      {"measurement": "p value vs vehicle", "setting": "[2]; [7]", "value": 0.28},
      {"measurement": "spectral counts, test compound", "setting": "Dpp4", "value": "42 (inactive)"},
      {"measurement": "p value vs vehicle", "setting": "Dpp4; [7]", "value": 0.1},
      {"measurement": "spectral counts, test compound", "setting": "Dpp7", "value": "16.3 (inactive)"},
      {"measurement": "p value vs vehicle", "setting": "Dpp7; [7]", "value": 0.826},
      {"measurement": "spectral counts, test compound", "setting": "Dpp8", "value": "31 (inactive)"},
      {"measurement": "p value vs vehicle", "setting": "Dpp8; [7]", "value": 0.639},
      {"measurement": "spectral counts, test compound", "setting": "Dpp9", "value": "62 (inactive)"},
      {"measurement": "p value vs vehicle", "setting": "Dpp9; [7]", "value": 0.978},
      {"measurement": "spectral counts, test compound", "setting": "Elane", "value": "28.3 (inactive)"},
      {"measurement": "p value vs vehicle", "setting": "Elane; [7]", "value": 0.242},
      {"measurement": "spectral counts, test compound", "setting": "Fam108b", "value": "13.7 (inactive)"},
      {"measurement": "p value vs vehicle", "setting": "Fam108b; [7]", "value": 0.018},
      {"measurement": "spectral counts, test compound", "setting": "Fasn", "value": "75.7 (inactive)"},
      {"measurement": "p value vs vehicle", "setting": "Fasn; [7]", "value": 0.026},
      {"measurement": "spectral counts, test compound", "setting": "Gzma", "value": "5.33 (inactive)"},
      {"measurement": "p value vs vehicle", "setting": "Gzma; [7]", "value": 0.275},
      {"measurement": "spectral counts, test compound", "setting": "Iah1", "value": "5.67 (inactive)"},
      {"measurement": "p value vs vehicle", "setting": "Iah1; [7]", "value": 0.442},
      {"measurement": "spectral counts, test compound", "setting": "KIAA1363", "value": "167 (inactive)"},
      {"measurement": "p value vs vehicle", "setting": "KIAA1363; [7]", "value": 0.699},
      {"measurement": "spectral counts, test compound", "setting": "Lipa", "value": "3 (inactive)"},
      {"measurement": "p value vs vehicle", "setting": "Lipa; [7]", "value": 0.482},
      {"measurement": "spectral counts, test compound", "setting": "Lipe", "value": "39.7 (inactive)"},
      {"measurement": "p value vs vehicle", "setting": "Lipe; [7]", "value": 0.014},
      {"measurement": "spectral counts, test compound", "setting": "Lpl", "value": "58.3 (inactive)"},
      {"measurement": "p value vs vehicle", "setting": "Lpl; [7]", "value": 0.211},
      {"measurement": "spectral counts, test compound", "setting": "Lypla2", "value": "89.3 (inactive)"},
      {"measurement": "p value vs vehicle", "setting": "Lypla2; [7]", "value": 0.688},
      {"measurement": "spectral counts, test compound", "setting": "Magl", "value": "18 (inactive)"},
      {"measurement": "p value vs vehicle", "setting": "Magl; [7]", "value": 0.937},
      {"measurement": "spectral counts, test compound", "setting": "[3]", "value": 0.667},
      {"measurement": "p value vs vehicle", "setting": "[3]; [7]", "value": 0.006},
      {"measurement": "spectral counts, test compound", "setting": "Pafah1b2", "value": "28.3 (inactive)"},
      {"measurement": "p value vs vehicle", "setting": "Pafah1b2; [7]", "value": 0.6},
      {"measurement": "spectral counts, test compound", "setting": "Pafah1b3", "value": "21.7 (inactive)"},
      {"measurement": "p value vs vehicle", "setting": "Pafah1b3; [7]", "value": 0.409},
      {"measurement": "spectral counts, test compound", "setting": "[4]", "value": "13.3 (inactive)"},
      {"measurement": "p value vs vehicle", "setting": "[4]; [7]", "value": 0.911},
      {"measurement": "spectral counts, test compound", "setting": "Pla2g15", "value": "29 (inactive)"},
      {"measurement": "p value vs vehicle", "setting": "Pla2g15; [7]", "value": 0.012},
      {"measurement": "spectral counts, test compound", "setting": "[5]; Pla2g7, stronger effect = lower value", "value": "17.7 (inactive)"},
      {"measurement": "p value vs vehicle", "setting": "[5]; Pla2g7, significance of hydrolase inhibition, stronger effect = lower value", "value": 0.115},
      {"measurement": "spectral counts, test compound", "setting": "[6]; Pafah2, stronger effect = lower value", "value": "16 (inactive)"},
      {"measurement": "p value vs vehicle", "setting": "[6]; Pafah2, significance of hydrolase inhibition, stronger effect = lower value", "value": 0.202},
      {"measurement": "spectral counts, test compound", "setting": "Pnpla6", "value": "4 (inactive)"},
      {"measurement": "p value vs vehicle", "setting": "Pnpla6; [7]", "value": 0.028},
      {"measurement": "spectral counts, test compound", "setting": "Pnpla7", "value": "34 (inactive)"},
      {"measurement": "p value vs vehicle", "setting": "Pnpla7; [7]", "value": 0.656},
      {"measurement": "spectral counts, test compound", "setting": "Ppt2", "value": "5.67 (inactive)"},
      {"measurement": "p value vs vehicle", "setting": "Ppt2; [7]", "value": 0.451},
      {"measurement": "spectral counts, test compound", "setting": "Prcp", "value": "99.7 (inactive)"},
      {"measurement": "p value vs vehicle", "setting": "Prcp; [7]", "value": 0.659},
      {"measurement": "spectral counts, test compound", "setting": "Prepl", "value": "4.33 (inactive)"},
      {"measurement": "p value vs vehicle", "setting": "Prepl; [7]", "value": 0.101},
      {"measurement": "spectral counts, test compound", "setting": "Tpp2", "value": "21 (inactive)"},
      {"measurement": "p value vs vehicle", "setting": "Tpp2; [7]", "value": 0.018}
    ]}
  ]
}
